The values below come from ChEMBL document CHEMBL4325888, “Medicinal chemistry of vicinal diaryl scaffold: A mini review” (Eur J Med Chem, 2019).

For experiment [1], the target named is T1, Prostaglandin G/H synthase 2 (Ovis aries, UniProt P79208).
T1 sequence (P79208 whole entry): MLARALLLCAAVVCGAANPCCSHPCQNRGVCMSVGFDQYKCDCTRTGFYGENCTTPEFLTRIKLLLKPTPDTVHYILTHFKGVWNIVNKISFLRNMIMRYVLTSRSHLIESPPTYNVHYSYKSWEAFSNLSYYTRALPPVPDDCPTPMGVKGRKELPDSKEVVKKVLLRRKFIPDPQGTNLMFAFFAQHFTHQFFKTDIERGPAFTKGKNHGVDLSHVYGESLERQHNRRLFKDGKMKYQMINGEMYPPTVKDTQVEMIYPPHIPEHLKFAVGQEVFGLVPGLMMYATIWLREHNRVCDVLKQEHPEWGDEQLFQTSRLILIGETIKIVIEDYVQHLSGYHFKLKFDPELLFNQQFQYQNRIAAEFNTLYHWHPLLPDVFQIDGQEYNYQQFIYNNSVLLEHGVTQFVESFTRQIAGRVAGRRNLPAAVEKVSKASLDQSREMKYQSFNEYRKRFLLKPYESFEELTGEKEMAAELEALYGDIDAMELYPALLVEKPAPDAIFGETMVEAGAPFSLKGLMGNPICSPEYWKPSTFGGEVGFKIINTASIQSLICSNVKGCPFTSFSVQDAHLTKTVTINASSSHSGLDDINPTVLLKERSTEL

Experiment [2] relates to MCF7. In words: cells. Type of experiment: functional, cell-based. Conditions: Homo sapiens.
The target of experiment [3] is Tubulin. The experiment is classed as protein-complex assay, Homo sapiens.
In experiment [4] the target is T1, Prostaglandin G/H synthase 2. The source holds these as a separate data set.
Experiment [5] is filed under the species Rattus norvegicus. As to the kind of experiment: animal or person. The experiment is classed as functional.
Experiment [6] has as its system MCF7. As to the kind of experiment: cells. Type of experiment: functional, cell-based. Particulars: Homo sapiens, MCF7, 48 h.
Experiment [7] addresses T2, Prostaglandin G/H synthase 1 (Mus musculus, UniProt P22437).
T2 sequence (P22437 whole entry): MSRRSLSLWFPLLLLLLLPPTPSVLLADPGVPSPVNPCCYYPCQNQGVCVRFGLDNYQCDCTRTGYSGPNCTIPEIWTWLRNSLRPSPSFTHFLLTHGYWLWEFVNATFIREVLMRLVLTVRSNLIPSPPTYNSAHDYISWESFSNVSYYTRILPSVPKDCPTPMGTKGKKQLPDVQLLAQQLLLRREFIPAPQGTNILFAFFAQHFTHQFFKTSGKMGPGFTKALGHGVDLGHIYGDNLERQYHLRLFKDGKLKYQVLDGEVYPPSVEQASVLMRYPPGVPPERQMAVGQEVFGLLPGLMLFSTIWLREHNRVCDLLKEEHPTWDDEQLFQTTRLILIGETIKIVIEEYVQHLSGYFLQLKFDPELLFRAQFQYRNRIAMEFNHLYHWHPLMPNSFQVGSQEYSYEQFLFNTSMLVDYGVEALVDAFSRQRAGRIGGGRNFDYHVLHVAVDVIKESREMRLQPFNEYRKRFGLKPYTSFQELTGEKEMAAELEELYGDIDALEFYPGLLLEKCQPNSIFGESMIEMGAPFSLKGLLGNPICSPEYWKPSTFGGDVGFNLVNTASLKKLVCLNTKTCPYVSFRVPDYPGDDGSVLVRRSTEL

Where only a bound is given, the exact number is not on record here.

One may read the IC50 as the concentration needed to halve the response being measured. A word on the ED50: it is the dose that gives a 50% effect, or the effect in half of the subjects.

`[N-]=[N+]=Nc1ccc(C2=C(c3ccccc3)C(=O)OC2)cc1` yielded a concentration for half-maximal inhibition (IC50) in experiment [1] of 196 nM.

As to `Cc1ccc(-c2cc(C(F)(F)F)nn2-c2ccc(N=[N+]=[N-])cc2)cc1`, inhibition in experiment [1] was half-maximal at 1550 nM (IC50).

In the case of `COc1ccc(-c2coc(=O)n2-c2cc(OC)c(OC)c(OC)c2)cc1N`, in experiment [2], it took 1800 nM to reach half-maximal inhibition (IC50).

`COc1ccc([C@H]2OCO[C@@H]2c2cc(OC)c(OC)c(OC)c2)cc1O` gave an IC50 in experiment [3] above 50000 nM.

For the compound `COc1ccc(-c2oc(O)nc2-c2cc(OC)c(OC)c(OC)c2)cc1N`, in experiment [2], the midpoint of inhibition, the IC50, lay at 4900 nM.

In experiment [4], `CC1C(c2ccc(F)cc2)=C(c2ccc(S(C)(=O)=O)cc2)ON1C` (stereo not given) came in with an IC50 of 31.6 nM.

Take `CS(=O)(=O)c1ccc(-c2snnc2-c2ccc(F)cc2)cc1`: the ED50 in experiment [5] was 0.7 mg/kg.

`COC(=O)c1ccc(-n2nc(C(F)(F)F)cc2-c2cc(OC)c(OC)c(OC)c2)cc1` returned an IC50 in experiment [6] of 1300 nM.

On to `COc1ccc([C@@H]2OCO[C@H]2c2cc(OC)c(OC)c(OC)c2)cc1O`, for which the IC50 in experiment [3] was 4000 to 6000 nM.

`CC1(C)OC(c2ccc(S(N)(=O)=O)cc2)=C(c2cccc(F)c2)C1=O` [POLMACOXIB] gave an IC50 in experiment [7] of 3 nM.
